The source of these data is PMC10671074, “Tumor Regression upon Intratumoral and Subcutaneous Dosing of the STING Agonist ALG-031048 in Mouse Efficacy Models” (International Journal of Molecular Sciences, 2023).

pEC50: −log10 of the molar value. Read-outs that look alike come from different tables or passages of the source. Marks after values point to notes of the source that are not given here.

Data set [1] can be described thus: Plasma stability, mouse. The format is in vitro ADME. As to conditions: 37 °C, read-out: Plasma t½, Mouse. On the procedure:
(§1) The plasma stability assay was carried out on 96-well microtiter plates. The test compounds at 5 µM and the reference compound (propantheline) at 1 µM final concentration were incubated separately at 37 °C with mouse or human plasma for 0, 30, 60, and 240 min. At the end of each incubation time point, 300 μL of the quenching solution (50% acetonitrile, 50% methanol, and 0.05% formic acid) containing the internal standard was added to each well. The incubation plates were sealed, vortexed, and centrifuged at 4 °C for 15 min at 4000 rpm. The supernatant was transferred to fresh plates for LC/MS/MS analysis of the test compounds. The peak area ratios of each test compound over the internal standard were plotted against incubation time, and the t½ was calculated from the curve assuming first-order kinetics.

The test system of data set [2] is primary human immature dendritic cells. The experiment in a line: Activation of primary human immature dendritic cells (CD83/CD86 flow cytometry). Type of data set: cell-based. Particulars: for Surface expression of CD86 and CD83 (in words): iDCs and, to a lesser degree, monocytes, 24 and 72 h; for pEC50: iDCs, 72 h after stimulation. An excerpt: Frozen human PBMCs (100 × 10^6 cells) were obtained from Stem Cell Technologies (Kent, WA, USA). Monocytes were purified from PBMCs using a CD14^+ pan-monocyte-negative isolation kit and an LS column (Miltenyi Biotec, Bergisch Gladbach, Germany). Magnetically labeled non-target cells were depleted by retaining them within a MACS column in the magnetic field of a MACS Separator, while highly purified unlabeled CD1 D16^− cells were collected and used to generate dendritic cells. To obtain immature monocyte-derived dendritic cells (iMDDCs), enriched monocytes were cultured in Mo-DC differentiation medium (Miltenyi Biotec) supplemented with human IL-4 (250 IU/mL, Miltenyi Biotec) and human GM-CSF (800 IU/mL, Miltenyi Biotec) at 37 °C in a T-150 flask in a 5% CO2 humidified incubator for 5 days; fresh media was replenished every 2–3 days.
[…] An aliquot of iMDDCs was also cultured in maturation media for 24–48 h and used as a control containing RPMI 1640, 10% FBS, 2 mM L-glutamine, and human TNF-α (6000 IU/mL, Miltenyi Biotec). The supernatant from the plate was frozen to assess cytokine production, and cells were analyzed via flow cytometry.
Cells were incubated with phosphate-buffered saline (PBS) containing 2% FBS and 2 mM of EDTA (FACS buffer) supplemented with 2 mg/mL of normal human IgG on ice for 15 min to block Fc receptors. The cell suspension was then incubated with a predetermined optimal concentration of the appropriate fluorescent dye-labeled monoclonal antibodies (mAbs) against human cell surface markers on ice for 30 min. The fluorescent dye-labeled mAbs against human cell surface molecules included anti-CD209, anti-CD14, anti-CD11c, anti-CD40, anti-HLA-DR, anti-CD86, and anti-CD83 (BD Biosciences, Franklin Lakes, NJ, USA or BioLegend, San Diego, CA, USA). In addition, a fixable live/dead stain (Thermo Fisher Scientific) at a dilution of 1:1000 was added to exclude dead cells. After several washes with FACS buffer, cells were resuspended in FACS buffer and analyzed on an Attune Nxt flow cytometer (Thermo Fisher Scientific) with FlowJo v10 software (BD Biosciences). An aliquot of the cells to be analyzed served as controls by using “fluorescent minus-one” to establish gates and determine the frequency of positively stained cells. Ultra-comp beads (Thermo Fisher Scientific) were used as single-stained controls to set up compensation on the flow cytometer.

Data set [3] in a line: Plasma stability, human. The format is in vitro ADME. Particulars: 37 °C, read-out: Plasma t½, Human. The protocol:
as §1

Data set [4] can be described thus: Liver microsomal stability, human. Type of data set: in vitro ADME. Particulars: pH 7.4, 0.5 mg/mL human liver microsomes, 37 °C, read-out: Liver Microsome t½, Human. On the procedure: (§2) The liver microsomal stability assay was carried out in 96-well microtiter plates. The test compounds at 5 µM and the reference compound (verapamil) at 1 µM final concentration were incubated separately at 37 °C with 0.5 mg/mL liver microsomes, with or without 1 mM NADPH in 100 mM potassium phosphate buffer, pH 7.4 with 3.3 mM MgCl2. […] At each of the time points (0, 15, 30, and 60 min), the enzymatic reaction was terminated with the addition of 150 μL of quenching solution (100% acetonitrile, 0.1% formic acid, and the internal standard), and subsequently the mixtures were vortexed vigorously for 20 min and centrifuged at 4000 rpm at 10 °C. The supernatants (80 µL) were transferred to a clean 96-well plate and analyzed via LC/MS/MS. The peak area ratios of each test compound over the internal standard were plotted against incubation time, and the t½ was calculated from the curve assuming first-order kinetics.

For data set [5] the following is noted: early clinical trial, patients; cited from earlier work.
The test system of data set [6] is subcutaneous CT26 tumors. The experiment in a line: CT26 mouse colon carcinoma model. Particulars: Table 2 study, 3 × q3d; for Median Time to Endpoint: vehicle 19.0.
Data set [7] concerns primary human monocytes. The experiment in a line: Activation of primary human monocytes (CD83/CD86 flow cytometry). The format is cell-based. Particulars: Monocyte, 24 h after stimulation. An excerpt: Frozen human PBMCs (100 × 10^6 cells) were obtained from Stem Cell Technologies (Kent, WA, USA). Monocytes were purified from PBMCs using a CD14^+ pan-monocyte-negative isolation kit and an LS column (Miltenyi Biotec, Bergisch Gladbach, Germany). Magnetically labeled non-target cells were depleted by retaining them within a MACS column in the magnetic field of a MACS Separator, while highly purified unlabeled CD1 D16^− cells were collected and used to generate dendritic cells.
The cell suspension was then incubated with a predetermined optimal concentration of the appropriate fluorescent dye-labeled monoclonal antibodies (mAbs) against human cell surface markers on ice for 30 min. The fluorescent dye-labeled mAbs against human cell surface molecules included anti-CD209, anti-CD14, anti-CD11c, anti-CD40, anti-HLA-DR, anti-CD86, and anti-CD83 (BD Biosciences, Franklin Lakes, NJ, USA or BioLegend, San Diego, CA, USA). In addition, a fixable live/dead stain (Thermo Fisher Scientific) at a dilution of 1:1000 was added to exclude dead cells. After several washes with FACS buffer, cells were resuspended in FACS buffer and analyzed on an Attune Nxt flow cytometer (Thermo Fisher Scientific) with FlowJo v10 software (BD Biosciences). An aliquot of the cells to be analyzed served as controls by using “fluorescent minus-one” to establish gates and determine the frequency of positively stained cells. Ultra-comp beads (Thermo Fisher Scientific) were used as single-stained controls to set up compensation on the flow cytometer.

Data set [8] can be described thus: Liver microsomal stability, mouse. Type of data set: in vitro ADME. As to conditions: pH 7.4, 0.5 mg/mL mouse liver microsomes, 37 °C, read-out: Liver Microsome t½, Mouse. On the procedure:
as §2

The subject of data set [9] is MC38-hPD-L1 tumors. Nature of the data set: MC38-hPD-L1 mouse colon carcinoma model. The format is in vivo. Particulars: 5 mg/kg IP, BIW (4×). An excerpt: Female C57/BL6 mice (Shanghai Lingchang Biotechnology Co., Ltd., Shanghai, China) were 5 to 8 weeks old with a body weight > 16 g at the time of inoculation. Animals were housed and fed as described above.
After inoculation with tumor cells, the animals were checked daily for morbidity and mortality. During routine monitoring, the animals were checked for any effects of tumor growth or test articles on behavior such as mobility, food and water consumption, body weight gain/loss (body weights were measured twice per week after randomization), eye/hair matting, and any other abnormalities. Tumor volumes were measured and calculated as described above.
Each group consisted of 10 animals. The control group was administered 5 mg/kg isotype control antibody in a volume of 10 μL/g of IP, BIW for 2.5 weeks, 5 doses total. The atezolizumab-treated group was administered 5 mg/kg in a volume of 10 μL/g of IP, BIW for 2.5 weeks, 5 doses total. […] Dosing started when average tumor volumes were 70 mm^3.

Consider `Nc1nc2c(ncn2[C@@H]2O[C@@H]3COP(=O)(O)O[C@H]4[C@@H](O)[C@H](n5cnc6c(N)ncnc65)O[C@@H]4COP(=O)(O)O[C@@H]2[C@@H]3O)c(=O)[nH]1` [2′3′ cGAMP, 2′3′ cyclic guanosine monophosphate–adenosine monophosphate], for which the half-life at 5 µM came out at 7.2 min in [1] and 12.8 min in [3]. Further, the “Surface expression of CD86 and CD83 (in words)” value in data set [2] is “upregulated the surface expression of CD86 and CD83”. Besides, the pEC50 in [2] (read-out: EC50 CD83, Immature Dendritic Cells) was 5.52; in [2] (read-out: EC50 CD86, Immature Dendritic Cells), 5.15.

For `Nc1ncnc2c1ncn2[C@@H]1O[C@@H]2CO[P@@](=O)(S)O[C@@H]3[C@H](O)[C@@H](CO[P@@](=O)(S)O[C@H]2[C@H]1O)O[C@H]3n1cnc2c(N)ncnc21` [ADU-S100], the half-life at 5 µM was above 60 min in data set [1], above 480 min in [4], above 60 min in [3] and above 480 min in [8]. The pEC50 was 5.10 in [2] (Homo sapiens, Dendritic cell, read-out: EC50 CD83, Immature Dendritic Cells); 4.60 in data set [2] (Homo sapiens, Dendritic cell, read-out: EC50 CD86, Immature Dendritic Cells); 5.41 in data set [7] (read-out: EC50 CD83, Monocytes); 6.31 in data set [7] (read-out: EC50 CD86, Monocytes). Also, the “Surface expression of CD86 and CD83 (in words)” value in data set [2] is “upregulated the surface expression of CD86 and CD83”. The “terminal t½” value in data set [5] was 10 to 23 min. Also, the “Animals with tumor regression by end of study” value in data set [6] (25 μg IT, Day 40) is 1 of 10. In addition, the “Delayed Response (TV > 10 and <2000 mm^3)” value in data set [6] (25 μg IT, n = 10) is on record as 40% ^a; in data set [6] (100 μg IT, n = 10), 10% ^b. Also, the “Treatment Failure (TV > 2000 mm^3)” value in data set [6] (25 μg IT, n = 10) was 50% ^a. For the same molecule, the “Complete Response (TV < 10 mm^3)” value in data set [6] (25 μg IT, n = 10, BALB/c, end of study Day 40) was determined as 10% ^a. Moreover, the “Median Time to Endpoint” value in data set [6] (25 μg IT, n = 10) is 36.5 days; in data set [6] (100 μg IT, n = 10), 40.0 days.

As to “Atezolizumab: anti-human PD-L1 antibody atezolizumab biosimilar provided by Crownbio [reference compound]”, the “Tumor Reduction vs. Group 1 (vehicle)” value in [9] (Day 11) is 53.7%. Moreover, the “TV on Day 11 (Median)” value in [9] (n = 10, vehicle 2268) was 1050 mm^3.
